Measured values reported in patent US11572341B2, “Biguanide compound and use thereof” (ImmunoMet Therapeutics Inc., priority 2014, dated 2023).
Counter-ions that a name gives are not always drawn.

Assays:
HCT116 cells = test: Inhibitory effect against cancer cell proliferation (MTT); format: cell-based, human; details: Homo sapiens, HCT-116; HCT116, MTT, 48 hours; read-out: IC50 (uM) @ HCT116
Protocol: The formazane crystals thus formed were dissolved using dimethyl sulfoxide (DMSO) and absorbance of the solution was measured at 560 nm. After culturing for 48 hours, […] synthesized in Examples was indicated as cell viability (%) according to each treated concentration.

AMPKa [pT172] = test: AMPKa activation [pT172] in MCF7 cell; format: cell-based

SMILES	IC50 (HCT116 cells)	AMPKa activation [pT172] (Unit/ml) @ MCF7 cell (AMPKa [pT172]; 5 uM)	AMPKa activation [pT172] (Unit/ml) @ MCF7 cell (AMPKa [pT172]; 10 uM)	AMPKa activation [pT172] (Unit/ml) @ MCF7 cell (AMPKa [pT172]; 50 uM)
CN1CCN(C(=N)NC(=N)Nc2ccccc2F)CC1.Cl [Example 34, N1-(4-methyl)piperazin-N5-(2-fluoro)phenyl Biguanide Hydrochloride]	> 100 µM	4.5 Unit/ml	3.7 Unit/ml	7.0 Unit/ml
CCCCNC(=N)NC(=N)N1CCN(C)CC1.Cl [Example 36, N1-(4-methy)piperazin-N5-butyl Biguanide Hydrochloride]	> 100 µM	5.5 Unit/ml	5.8 Unit/ml	4.8 Unit/ml
CN1CCN(C(=N)NC(=N)Nc2ccc(Cl)c(Cl)c2)CC1.Cl [Example 37, N1-(4-methyl)piperazin-N5-(3,4-dichloro)phenyl Biguanide Hydrochloride]	32.8 µM	5.8 Unit/ml	7.5 Unit/ml	15.0 Unit/ml
CN1CCN(C(=N)NC(=N)Nc2cc(F)cc(F)c2)CC1.Cl [Example 39, N1-(4-methyl)piperazin-N5-(3,5-difluoro)phenyl Biguanide Hydrochloride]	> 100 µM	6.2 Unit/ml	7.1 Unit/ml	8.2 Unit/ml
CN1CCN(C(=N)NC(=N)Nc2cc(F)c(F)c(F)c2)CC1.Cl [Example 40, N1-(4-methyl)piperazin-N5-(3,4,5-trifluoro)phenyl Biguanide Hydrochloride]	> 100 µM	7.0 Unit/ml	5.1 Unit/ml	7.2 Unit/ml
Cl.N=C(NC(=N)Nc1cccc(C(F)(F)F)c1)Nc1cccnc1 [Example 41, N1-3-pyridin-N5-(3-trifluoromethyl)phenyl Biguanide Hydrochloride]	> 100 µM	8.3 Unit/ml	10.2 Unit/ml	14.4 Unit/ml
Cl.N=C(NCc1cccc(C(F)(F)F)c1)NC(=N)Nc1cccnc1 [Example 43, N1-3-pyridin-N5-(3-trifluoromethyl)benzyl Biguanide Hydrochloride]	100 µM	3.0 Unit/ml	4.3 Unit/ml	7.6 Unit/ml
CC1CCCN(C(=N)NC(=N)NC2CCCC2)C1.Cl (centres unmarked) [Example 44, N1-(3-methyl)piperidin-N5-cyclopentyl Biguanide Hydrochloride]	> 100 µM	4.5 Unit/ml	5.2 Unit/ml	14.8 Unit/ml
COC1CCN(C(=N)NC(=N)N2CCCC(C)C2)CC1.Cl (centres unmarked) [Example 45, N1-(3-methyl)piperidin-N5-(4-methoxy)piperidine Biguanide Hydrochloride]	> 100 µM	3.0 Unit/ml	4.0 Unit/ml	3.5 Unit/ml
CCOC1CCN(C(=N)NC(=N)N2CCCC(C)C2)CC1 (centres unmarked) [Example 46, N1-(3-methyl)piperidin-N5-(4-ethos)piperidine Biguanide Hydrochloride]	> 100 µM	3.8 Unit/ml	3.6 Unit/ml	5.4 Unit/ml
CC1CCCN(C(=N)NC(=N)Nc2cnccn2)C1.Cl (centres unmarked) [Example 47, N1-(3-methyl)piperidin-N5-pyrazin-2-yl Biguanide Hydrochloride]	130 µM	2.8 Unit/ml	3.8 Unit/ml	5.3 Unit/ml
CC1CCN(C(=N)NC(=N)Nc2ccc(Br)cc2)CC1.Cl [Example 48, N1-(4-methyl)piperidin-N5-(4-bromo)phenyl Biguanide Hydrochloride]	8.6 µM	4.3 Unit/ml	6.8 Unit/ml	cell death
CC1CCN(C(=N)NC(=N)Nc2cccc(OC(F)(F)F)c2)CC1.Cl [Example 49, N1-(4-methy)piperidin-N5-(3-trifluoromethoxy)phenyl Biguanide Hydrochloride]	5.1 µM	9.3 Unit/ml	13.7 Unit/ml	cell death
CC1CCN(C(=N)NC(=N)Nc2cccc(C(F)(F)F)c2)CC1.Cl [Example 50, N1-(4-methyl)piperidin-N5-(3-trifluoromethyl)phenyl Biguanide Hydrochloride]	6.7 µM	8.3 Unit/ml	11.5 Unit/ml	cell death
CC1CCCN(C(=N)NC(=N)Nc2cccc(C(F)(F)F)c2)C1.Cl (centres unmarked) [Example 51, N1-(3-methyl)piperidin-N5-(3-trifluoromethyl)phenyl Biguanide Hydrochloride]	6.6 µM	12.5 Unit/ml	15.2 Unit/ml	cell death
CC1CCN(C(=N)NC(=N)Nc2ccc(OC(F)(F)F)cc2)CC1.Cl [Example 52, N1-(4-methyl)piperidin-N5-(4-trifluoromethoxy)phenyl Biguanide Hydrochloride]	6.8 µM	9.4 Unit/ml	15.0 Unit/ml	cell death
CC1CCN(C(=N)NC(=N)Nc2ccc(C(F)(F)F)cc2)CC1.Cl [Example 53, N1-(4-methyl)piperidin-N5-(4-trifluoromethyl)phenyl Biguanide Hydrochloride]	6.1 µM	9.2 Unit/ml	13.9 Unit/ml	cell death
CC1CCN(C(=N)NC(=N)Nc2ccc(F)c(C(F)(F)F)c2)CC1.Cl [Example 54, N1-(4-methyl)piperidin-N5-(3-trifluoromethyl-4-fluoro)phenyl Biguanide Hydrochloride]	6.7 µM	4.9 Unit/ml	8.9 Unit/ml	cell death
CC1CCN(C(=N)NC(=N)Nc2ccc(F)cc2)CC1.Cl [Example 56, N1-(4-methyl)piperidin-N5-(4-fluoro)phenyl Biguanide Hydrochloride]	48.8 µM	2.7 Unit/ml	4.8 Unit/ml	15.4 Unit/ml
CC1CCN(C(=N)NC(=N)Nc2ccc(C(F)(F)F)c(F)c2)CC1.Cl [Example 57, N1-(4-methyl)piperidin-N5-(3-fluoro-4-trifluoromethyl)phenyl Biguanide Hydrochloride]	2.5 µM	6.7 Unit/ml	12.1 Unit/ml	cell death
CC1CCN(C(=N)NC(=N)Nc2ccc(Cl)c(C(F)(F)F)c2)CC1.Cl [Example 58, N1-(4-methyl)piperidin-N5-(3-trifluoromethyl-4-chloro)phenyl Biguanide Hydrochloride]	2.3 µM	2.5 Unit/ml	5.0 Unit/ml	cell death
CC1CCN(C(=N)NC(=N)Nc2ccc(OC(F)(F)F)c(F)c2)CC1.Cl [Example 59, N1-(4-methyl)piperidin-N5-(3-fluoro-4-trifluoromethoxy)phenyl Biguanide Hydrochloride]	2.3 µM	9.8 Unit/ml	13.3 Unit/ml	cell death
CC1CCN(C(=N)NC(=N)NCc2cccc(C(F)(F)F)c2)CC1.Cl [Example 60, N1-(4-methyl)piperidin-N5-(3-trifluoromethyl)benzyl Biguanide Hydrochloride]	15.4 µM	4.6 Unit/ml	7.8 Unit/ml	20.9 Unit/ml
